This is an account of results in PubChem BioAssay (NCI).

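Assay format: 96-well plates, 48-hour exposure. TGI: concentration producing complete growth inhibition.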

The first assay concerns HCT-15 colon. The experiment in a line: NCI anticancer screen, dose series, 48 h.
For `COC(=O)C1(OC(=O)Sc2ccccc2)CCN(C)CC1`, the TGI was greater than 63.1 µM.
`CC(CC(=O)O)C(C(=O)O)C(=O)O` (stereo unspecified) gave a TGI greater than 100 µM.
`CC(=O)OC1O[C@@H](C(C)(C)O)CC[C@@H]1[C@H]1CC[C@@]2(C)C3=C(CC[C@]12C)[C@@]1(C)C[C@@H](OC(=O)CC(C)(O)CC(=O)O)[C@H](OC(C)=O)C(C)(C)C1CC3` (stereo partly specified) had a TGI of 43.1 µM.
`O=C1NN=C2C=C(c3ccc(Cl)cc3)CC(c3cccc(Cl)c3)C12` (stereo unspecified) displayed a TGI of 32.8 µM.

In a further assay the test system is DU-145 prostate. The experiment in a line: NCI anticancer screen, dose series, 48 h.
`COC(=O)C1(OC(=O)Sc2ccccc2)CCN(C)CC1`: the TGI was greater than 100 µM.
`CC(CC(=O)O)C(C(=O)O)C(=O)O` (stereo unspecified) registered a TGI greater than 100 µM.
`CC(=O)OC1O[C@@H](C(C)(C)O)CC[C@@H]1[C@H]1CC[C@@]2(C)C3=C(CC[C@]12C)[C@@]1(C)C[C@@H](OC(=O)CC(C)(O)CC(=O)O)[C@H](OC(C)=O)C(C)(C)C1CC3` (stereo partly specified) showed a TGI of 33.2 µM.
Consider `O=C1NN=C2C=C(c3ccc(Cl)cc3)CC(c3cccc(Cl)c3)C12` (stereo unspecified), for which the TGI was greater than 100 µM.

A further assay deals with 786-0 renal. Briefly: NCI anticancer screen, dose series, 48 h.
The molecule `COC(=O)C1(OC(=O)Sc2ccccc2)CCN(C)CC1` had a TGI of 50.3 µM.
Consider `CC(CC(=O)O)C(C(=O)O)C(=O)O` (stereo unspecified), for which the TGI was greater than 100 µM.
Regarding `CC(=O)OC1O[C@@H](C(C)(C)O)CC[C@@H]1[C@H]1CC[C@@]2(C)C3=C(CC[C@]12C)[C@@]1(C)C[C@@H](OC(=O)CC(C)(O)CC(=O)O)[C@H](OC(C)=O)C(C)(C)C1CC3` (stereo partly specified), the TGI came to 33.9 µM.
Same read-out and setting: the result for `O=C1NN=C2C=C(c3ccc(Cl)cc3)CC(c3cccc(Cl)c3)C12` (stereo unspecified) reads 62.8 µM.

Another assay has as its system HCT-116 colon. The experiment in a line: NCI anticancer screen, dose series, 48 h.
Take `COC(=O)C1(OC(=O)Sc2ccccc2)CCN(C)CC1`: the TGI came to 53.6 µM.
In turn, `CC(CC(=O)O)C(C(=O)O)C(=O)O` (stereo unspecified) returned a TGI greater than 100 µM.
In the case of `O=C1NN=C2C=C(c3ccc(Cl)cc3)CC(c3cccc(Cl)c3)C12` (stereo unspecified), the TGI was 41 µM.

Another assay has as its system NCI/ADR-RES ovarian. Briefly: NCI anticancer screen, dose series, 48 h.
As to `COC(=O)C1(OC(=O)Sc2ccccc2)CCN(C)CC1`, the TGI is greater than 48.4 µM.
The same measure, in the same setting: next, `CC(CC(=O)O)C(C(=O)O)C(=O)O` (stereo unspecified): greater than 100 µM; `CC(=O)OC1O[C@@H](C(C)(C)O)CC[C@@H]1[C@H]1CC[C@@]2(C)C3=C(CC[C@]12C)[C@@]1(C)C[C@@H](OC(=O)CC(C)(O)CC(=O)O)[C@H](OC(C)=O)C(C)(C)C1CC3` (stereo partly specified): 33.7 µM.
Regarding `O=C1NN=C2C=C(c3ccc(Cl)cc3)CC(c3cccc(Cl)c3)C12` (stereo unspecified), the TGI is greater than 100 µM.

A further assay concerns SF-539 CNS. The experiment in a line: NCI anticancer screen, dose series, 48 h.
In turn, `COC(=O)C1(OC(=O)Sc2ccccc2)CCN(C)CC1` yielded a TGI of 26.5 µM.
In turn, `CC(CC(=O)O)C(C(=O)O)C(=O)O` (stereo unspecified) displayed a TGI greater than 100 µM.
Still for that read-out and setting: the result for `O=C1NN=C2C=C(c3ccc(Cl)cc3)CC(c3cccc(Cl)c3)C12` (stereo unspecified) reads 55.7 µM.

Another assay concerns NCI-H226 lung. The experiment in a line: NCI anticancer screen, dose series, 48 h.
`COC(=O)C1(OC(=O)Sc2ccccc2)CCN(C)CC1`: the TGI worked out at 35.7 µM.
The molecule `CC(CC(=O)O)C(C(=O)O)C(=O)O` (stereo unspecified) yielded a TGI greater than 100 µM.
The molecule `CC(=O)OC1O[C@@H](C(C)(C)O)CC[C@@H]1[C@H]1CC[C@@]2(C)C3=C(CC[C@]12C)[C@@]1(C)C[C@@H](OC(=O)CC(C)(O)CC(=O)O)[C@H](OC(C)=O)C(C)(C)C1CC3` (stereo partly specified) yielded a TGI of 49.6 µM.
On the same count and under the same terms, the result for `O=C1NN=C2C=C(c3ccc(Cl)cc3)CC(c3cccc(Cl)c3)C12` (stereo unspecified) reads 60.6 µM.

The subject of the next assay is HL-60(TB) leukemia. The experiment in a line: NCI anticancer screen, dose series, 48 h.
As for `COC(=O)C1(OC(=O)Sc2ccccc2)CCN(C)CC1`, the TGI worked out at 24 µM.
The molecule `CC(CC(=O)O)C(C(=O)O)C(=O)O` (stereo unspecified) yielded a TGI greater than 100 µM.
For `CC(=O)OC1O[C@@H](C(C)(C)O)CC[C@@H]1[C@H]1CC[C@@]2(C)C3=C(CC[C@]12C)[C@@]1(C)C[C@@H](OC(=O)CC(C)(O)CC(=O)O)[C@H](OC(C)=O)C(C)(C)C1CC3` (stereo partly specified), the TGI came out at 65.1 µM.
For `O=C1NN=C2C=C(c3ccc(Cl)cc3)CC(c3cccc(Cl)c3)C12` (stereo unspecified), the TGI turned out to be 49.1 µM.

The subject of another assay is A549 NSCLC. The experiment in a line: NCI anticancer screen, dose series, 48 h.
The molecule `COC(=O)C1(OC(=O)Sc2ccccc2)CCN(C)CC1` returned a TGI greater than 100 µM.
`CC(CC(=O)O)C(C(=O)O)C(=O)O` (stereo unspecified) displayed a TGI greater than 100 µM.
Turning to `CC(=O)OC1O[C@@H](C(C)(C)O)CC[C@@H]1[C@H]1CC[C@@]2(C)C3=C(CC[C@]12C)[C@@]1(C)C[C@@H](OC(=O)CC(C)(O)CC(=O)O)[C@H](OC(C)=O)C(C)(C)C1CC3` (stereo partly specified), the TGI was determined as 30.9 µM.
Take `O=C1NN=C2C=C(c3ccc(Cl)cc3)CC(c3cccc(Cl)c3)C12` (stereo unspecified): the TGI was 37.2 µM.

Another assay concerns SR leukemia. Briefly: NCI anticancer screen, dose series, 48 h.
The molecule `COC(=O)C1(OC(=O)Sc2ccccc2)CCN(C)CC1` yielded a TGI of 35.7 µM.
The same measure, in the same setting: the result for `CC(CC(=O)O)C(C(=O)O)C(=O)O` (stereo unspecified) reads greater than 100 µM.
In turn, `CC(=O)OC1O[C@@H](C(C)(C)O)CC[C@@H]1[C@H]1CC[C@@]2(C)C3=C(CC[C@]12C)[C@@]1(C)C[C@@H](OC(=O)CC(C)(O)CC(=O)O)[C@H](OC(C)=O)C(C)(C)C1CC3` (stereo partly specified) yielded a TGI of 53.2 µM.
`O=C1NN=C2C=C(c3ccc(Cl)cc3)CC(c3cccc(Cl)c3)C12` (stereo unspecified) returned a TGI of 41.7 µM.

The test system of the next assay is COLO 205 colon. The experiment in a line: NCI anticancer screen, dose series, 48 h.
The molecule `COC(=O)C1(OC(=O)Sc2ccccc2)CCN(C)CC1` showed a TGI of 29.8 µM.
Same read-out and setting: the result for `CC(CC(=O)O)C(C(=O)O)C(=O)O` (stereo unspecified) reads greater than 100 µM; that for `O=C1NN=C2C=C(c3ccc(Cl)cc3)CC(c3cccc(Cl)c3)C12` (stereo unspecified), 35.8 µM.

A further assay has as its system SK-OV-3 ovarian. The experiment in a line: NCI anticancer screen, dose series, 48 h.
For the molecule `COC(=O)C1(OC(=O)Sc2ccccc2)CCN(C)CC1`, the TGI was greater than 69.1 µM.
On the same count and under the same terms, the result for `CC(CC(=O)O)C(C(=O)O)C(=O)O` (stereo unspecified) reads greater than 100 µM.
`CC(=O)OC1O[C@@H](C(C)(C)O)CC[C@@H]1[C@H]1CC[C@@]2(C)C3=C(CC[C@]12C)[C@@]1(C)C[C@@H](OC(=O)CC(C)(O)CC(=O)O)[C@H](OC(C)=O)C(C)(C)C1CC3` (stereo partly specified): the TGI came to 38.7 µM.
The same measure, in the same setting: next, `O=C1NN=C2C=C(c3ccc(Cl)cc3)CC(c3cccc(Cl)c3)C12` (stereo unspecified): greater than 100 µM.

For the next assay, the system named is UO-31 renal. Briefly: NCI anticancer screen, dose series, 48 h.
As for `COC(=O)C1(OC(=O)Sc2ccccc2)CCN(C)CC1`, the TGI was 20.8 µM.
The molecule `CC(CC(=O)O)C(C(=O)O)C(=O)O` (stereo unspecified) came in with a TGI greater than 100 µM.
`CC(=O)OC1O[C@@H](C(C)(C)O)CC[C@@H]1[C@H]1CC[C@@]2(C)C3=C(CC[C@]12C)[C@@]1(C)C[C@@H](OC(=O)CC(C)(O)CC(=O)O)[C@H](OC(C)=O)C(C)(C)C1CC3` (stereo partly specified) displayed a TGI of 29.4 µM.
Same read-out and setting: next, `O=C1NN=C2C=C(c3ccc(Cl)cc3)CC(c3cccc(Cl)c3)C12` (stereo unspecified): 66.4 µM.

Another assay concerns K-562 leukemia. Briefly: NCI anticancer screen, dose series, 48 h.
Molecule `COC(=O)C1(OC(=O)Sc2ccccc2)CCN(C)CC1` came in with a TGI of 61.1 µM.
Take `CC(CC(=O)O)C(C(=O)O)C(=O)O` (stereo unspecified): the TGI is greater than 100 µM.
In turn, `CC(=O)OC1O[C@@H](C(C)(C)O)CC[C@@H]1[C@H]1CC[C@@]2(C)C3=C(CC[C@]12C)[C@@]1(C)C[C@@H](OC(=O)CC(C)(O)CC(=O)O)[C@H](OC(C)=O)C(C)(C)C1CC3` (stereo partly specified) displayed a TGI of 89.1 µM.
Same read-out and setting: next, `O=C1NN=C2C=C(c3ccc(Cl)cc3)CC(c3cccc(Cl)c3)C12` (stereo unspecified): 41.8 µM.

The next assay has as its system PC-3 prostate. Briefly: NCI anticancer screen, dose series, 48 h.
In turn, `COC(=O)C1(OC(=O)Sc2ccccc2)CCN(C)CC1` showed a TGI greater than 83.5 µM.
The molecule `CC(CC(=O)O)C(C(=O)O)C(=O)O` (stereo unspecified) displayed a TGI greater than 100 µM.
Take `CC(=O)OC1O[C@@H](C(C)(C)O)CC[C@@H]1[C@H]1CC[C@@]2(C)C3=C(CC[C@]12C)[C@@]1(C)C[C@@H](OC(=O)CC(C)(O)CC(=O)O)[C@H](OC(C)=O)C(C)(C)C1CC3` (stereo partly specified): the TGI was 30.9 µM.
